Measured values from paper PMC7932521, “2-aminobenzimidazoles for leishmaniasis: From initial hit discovery to in vivo profiling” (PLoS Neglected Tropical Diseases, 2021).
pIC50: −log10 of the molar value. Like-named read-outs stand apart in the source and are kept apart here.

Tests used:
MRC-5 cytotoxicity = type: cell-based; details: human, MRC-5 cells; S1 Data
[1] = Parallel artificial membrane permeability assay (PAMPA); type: in vitro ADME
Protocol: To determine the passive permeability of the compounds, a 96-well plate containing membranes pre-coated with lipids (Corning Gentest # 353015) was used. The solutions of the compounds were prepared by diluting the stock solutions (10mM) in phosphate buffered saline (PBS) pH 6.5 at a final concentration of 10μM. The solutions diluted in PBS pH 6.5 were then added to the donor portion of the plate (300 μl/well), while PBS pH 7.4 (200 μl/well) was added to the acceptor portion. The two portions of the plate were then coupled, and the system was incubated for 5 h at 37°C. At the end of the incubation, samples were collected from the donor and acceptor plates, and then added to plates containing quench solution (10% water and 90% methanol: acetonitrile (50:50) + 50 nM tolbutamide). The final concentrations of compounds in the donor, acceptor, and initial solution (T0) wells were analyzed using LC-MS/MS. The results were used to calculate an effective permeability (Pe) value. The PAMPA assay was performed in triplicate (n = 3).

[2] = test system: Leishmania infantum MHOM/MA(BE)/67/ITMAP263 amastigotes; experiment: L. infantum intracellular amastigote assay in PMM; type: cell-based; details: for SI: selectivity index (CC50 / IC50): CC50 / L. infantum IC50; for pIC50: Leishmania infantum, read-out: L. infantum IC50; for potency compared to initial hit 1: L. infantum IC50
Protocol: (§1) Leishmania infantum MHOM/MA(BE)/67/ITMAP263 amastigotes were collected from the spleen of infected donor Golden hamsters. Primary peritoneal mouse macrophages (PMM) were used as host cells for in vitro assays. PMM were collected from Swiss mice after 2 days of peritoneal stimulation with a 2% suspension of potato starch and maintained in RPMI-1640 medium supplemented with 200 mM L-glutamine, antibiotics and 5% FCS at 37°C and 5% CO2. Promastigotes of L. infantum chagasi (luciferase) (MHOM/BR/2005/NLC) obtained as described in Reimão et al.,[27] were grown in M199 medium supplemented with 10% FCS, 0.25% hemin, 32 μg/ml hygromycin and 2% sterile human urine at 25°C and 5% CO2.
(§2) Stock solutions of the compounds at 20 mM were prepared in 100% DMSO. Next, the compounds were serially pre-diluted in DMSO followed by a further dilution in demineralized water to assure a final in-test DMSO concentration below 1%. The compounds were tested at 4-fold dilutions starting at 64 μM.
For the antileishmania in vitro assays, 3×10^4 PMM/well were seeded in 96-well plates. After 24h, 5×10^5 amastigotes/well were added and incubated for 2h at 37°C. Next, the compounds in 4-fold serial dilutions were added and the plates were further incubated for 5 days (37°C, 5% CO2). Parasite burdens were assessed using an inverted microscope after Giemsa staining. The results were expressed as percent reduction in parasite burdens compared to negative control wells (100% growth) and IC50 values were determined. Values represent the geometric mean of at least two independent experiments. Miltefosine was used as the positive control in all plates.

[3] = test system: PMM (Primary Mouse Macrophages); experiment: Cytotoxicity on primary peritoneal mouse macrophages; type: cell-based; details: Mus musculus, Macrophage, read-out: PMM IC50
Protocol: as §1, §2

[4] = Mouse liver microsomal stability; type: in vitro ADME; details: for microsomal CLint at 0.5 μM: CD1, mouse, liver microsomes, pH 7.4, S1 Data, read-out: MLM CLint
Protocol: The metabolic stability of the compounds was evaluated in human (pool of 200 donors, XenoTech) and mouse liver microsomes (CD1 mouse, GIBCO). Test compounds were prepared at a concentration of 0.5 μM and incubated with 0.25 mg/mL liver microsomes at pH 7.4 and 37°C. The reaction was started by addition of NADPH at […]. Samples were taken at 0, 5, 10, 15, 20 and 30 minutes. The reaction was stopped by the addition of acetonitrile:methanol (1:1) containing an internal standard (tolbutamide at 50 nM). Compounds were quantified by liquid chromatography triple quadrupole mass spectrometry (LC-MS/MS). Peak area ratios (analyte/internal standard) were converted to % remaining using the area ratio at time 0 as 100%. Half-life (t1/2 = ln(2)/k) in minutes and intrinsic clearance (Clint = k x 1000/(0.25)) in μL/min/mg were calculated using a non-linear regression from % remaining versus incubation time. From this plot, the slope (k) was determined. The analysis conditions were: analytical column (Gemini C18, […], Phenomenex), electrospray ionization source (ESI) in positive and negative mode, mobile phase A (water + 0.1% formic acid) and B (acetonitrile + 0.1% formic acid), flow rate of 0.7 mL/min.

[5] = Experimental distribution coefficient (eLogD); type: physicochemical; details: pH 7.4
Protocol: To determine the lipophilicity of the compounds, a methodology based on the retention time of molecules in reverse stationary phase (Ascentis RP-Amide HPLC column) was used. The chromatogram was obtained using LC-MS/MS. Test compounds were prepared at 1.0 μg/mL by adding the stock solution at (1:1) mobile phases A:B + internal standard at 200nM (A: 5% methanol in 10mM ammonium acetate pH 7.4, B: 100% methanol), DMSO concentration must be lower than 2%. […] The retention time (in minutes) of each of the eight standards was plotted against their LogD values. The resulting equation for the calibration curve (y = mx + b) was used to calculate the LogD values for the test compounds.

[6] = PAMPA, S1 Data, read-out: PAMPA Pe
[7] = 120 h, intracellular amastigotes in PMM, 5 days
[8] = mouse liver microsome intrinsic clearance
[9] = reverse stationary phase HPLC column (Ascentis RP-Amide), S1 Data
[10] = reverse-phase HPLC retention (Ascentis RP-Amide column), experimental

Structure (SMILES)	CC50 (MRC-5 cytotoxicity)	Papp at 5 h, 10 μM [1, 6]	SI: selectivity index (CC50 / IC50) [2]	pIC50 [2, 7]	pIC50 ([2]; S1 Data)	pIC50 [3]	microsomal CLint at 0.5 μM [4]	MLM CLint [4, 8]	potency compared to initial hit 1 [2]	chromatographic logD [5, 9]	MLM CLint ([4]; S1 Data)	eLogD ([5]; experimental)	chromatographic logD [5, 10]	Papp at 5 h, 10 μM ([1]; passive permeability, read-out: PAMPA)
Cn1nccc1C(=O)Nc1nc2cccnc2n1CC(F)(F)F [Compound 53, O=C(c1ccnn1C)Nc2nc(cccn3)c3n2CC(F)(F)F]	6.83 µM	24.3 ×10⁻⁶ cm/s	4	5.09	5.09	4.49	118 µL/min/mg	119 µL/min/mg	–	–	–	–	–	–
N#Cc1ccc2nc(NC(=O)c3ccnn3C3CC3)n(CC(F)(F)F)c2c1 [Compound 37, O=C(c1ccnn1C2CC2)Nc3nc(ccc(C#N)c4)c4n3CC(F)(F)F]	3 µM	–	5	5.00	4.99	4.34	–	–	–	–	–	–	–	–
CCN(CC)CCCn1c(NC(=O)Cc2ccc(F)cc2)nc2ccc(C#N)cc21 [Compound 26, CCN(CC)CCCn1c(cc(C#N)cc2)c2nc1NC(Cc3ccc(F)cc3)=O]	> 64 µM	–	–	–	< 4.19	< 4.19	154 µL/min/mg	–	–	–	–	–	–	–
N#Cc1ccc2nc(NC(=O)c3cnc(C(F)(F)F)nc3)n(CC(F)(F)F)c2c1 [Compound 46, O=C(c1cnc(C(F)(F)F)nc1)Nc2nc(ccc(C#N)c3)c3n2CC(F)(F)F]	1.78 µM	1.46 ×10⁻⁶ cm/s	4	6.00	–	5.40	–	–	10 to 20 fold	–	–	–	–	–
Cc1ccc(C(=O)Nc2nc3ccc(C#N)cc3n2CC(F)(F)F)cn1 [Compound 42, O=C(c1ccc(C)nc1)Nc2nc(ccc(C#N)c3)c3n2CC(F)(F)F]	> 64 µM	13.2 ×10⁻⁶ cm/s	2	5.33	5.33	5.10	–	–	–	–	–	–	–	–
CCCn1c(NC(=O)Cc2ccc(Cl)cc2)nc2ccc(F)cc21 [Compound 3, CCCn1c(cc(F)cc2)c2nc1NC(=O)Cc3ccc(Cl)cc3]	56.7 µM	–	4	5.54	5.53	4.90	–	–	–	4.31	1590 µL/min/mg	–	–	–
CCN(CC)CCCn1c(NC(=O)c2ccnn2C)nc2ccc(C#N)cc21 [Compound 52, CCN(CC)CCCn1c(cc(C#N)cc2)c2nc1NC(c3ccnn3C)=O]	> 64 µM	–	1	4.24	4.24	< 4.19	59 µL/min/mg	–	–	–	–	–	–	–
CCCn1c(NC(=O)Cc2ccc(Cl)cc2)nc2cc(C(F)(F)F)ccc21 [Compound 7, CCCn1c(ccc(C(F)(F)F)c2)c2nc1NC(Cc3ccc(Cl)cc3)=O]	11.2 µM	–	8	5.70	5.70	4.80	–	–	6 fold	4.69	283 µL/min/mg	4.7	–	–
Cn1cc(C(=O)Nc2nc3ccc(C#N)cc3n2CC(F)(F)F)cn1 [Compound 36, O=C(c1cn(C)nc1)Nc2nc(ccc(C#N)c3)c3n2CC(F)(F)F]	56.1 µM	–	2	5.06	5.06	4.80	–	–	–	–	–	–	–	–
O=C(Cc1ccc(Cl)cc1)Nc1nc2ccc(F)cc2n1CC(F)(F)F [Compound 23, Fc1cc2c(nc(NC(=O)Cc3ccc(Cl)cc3)n2CC(F)(F)F)cc1]	> 64 µM	7.07 ×10⁻⁶ cm/s	–	5.32	5.32	4.34	–	–	–	4.46	–	–	–	–
CC(C)(C)Cn1c(NC(=O)Cc2ccc(C(F)(F)F)cc2)nc2ccccc21 [Compound 20, CC(Cn1c(cccc2)c2nc1NC(Cc3ccc(C(F)(F)F)cc3)=O)(C)C]	> 32 µM	–	–	5.09	5.09	4.65	–	–	–	–	–	–	4.9	–
O=C(Cc1ccc(F)cc1)Nc1nc2cc(F)ccc2n1C1CCNCC1 [Compound 25, O=C(Nc1n(C2CCNCC2)c(c3n1)ccc(F)c3)Cc4ccc(F)cc4]	> 64 µM	0.19 ×10⁻⁶ cm/s	–	4.47	4.46	< 4.19	–	–	–	3.08	–	–	–	–
CCCn1c(NC(=O)Cc2ccc(Cl)cc2)nc2cc(F)ccc21 [Compound 4, CCCn1c(ccc(F)c2)c2nc1NC(=O)Cc3ccc(Cl)cc3]	> 64 µM	–	5	5.37	5.36	4.70	–	–	–	4.26	1510 µL/min/mg	–	–	–
Cn1nncc1C(=O)Nc1nc2ccc(C#N)cc2n1CC(F)(F)F [Compound 33, O=C(c1cnnn1C)Nc2nc(ccc(C#N)c3)c3n2CC(F)(F)F]	> 64 µM	–	2	4.82	4.83	4.49	–	–	–	4	–	4.0	–	–
CCCn1c(NC(=O)Cc2ccc(Cl)cc2)nc2ccccc21 [Compound 1]	–	–	–	4.92	–	< 4.19	–	3094 µL/min/mg	–	–	–	–	4.6	6.7 ×10⁻⁶ cm/s
Cn1c(NC(=O)Cc2ccc(Cl)cc2)nc2ccccc21 [Compound 17, O=C(Nc1n(C)c(cccc2)c2n1)Cc3ccc(Cl)cc3]	> 64 µM	–	–	4.48	4.49	4.49	–	–	–	–	–	–	–	–
